For two molecules, IC50 results are on record in ChEMBL document CHEMBL1155490, “Aaptamine, an alkaloid from the sponge Aaptos suberitoides, functions as a proteasome inhibitor” (Bioorg Med Chem Lett, 2010).

Each structure is given as a SMILES string. ≈ marks a conversion by molar mass, not a printed value.

The nature of experiment [1]: Inhibition of chymotrypsin-like activity of purified 20S proteasome from human erythrocyte.
Experiment [2] is described as follows: Inhibition of caspase-like activity of 20S proteasome in human erythrocyte by spectrofluorimetry.
A short description of experiment [3]: Inhibition of trypsin like activity of partially purified rat liver proteasome by spectrofluorimetry. The experiment is classed as subcellular.
Experiment [4] in a line: Inhibition of caspase like activity of partially purified rat liver proteasome by spectrofluorimetry. The experiment is classed as subcellular.
The next experiment deals with HeLa. Put plainly: Cytotoxicity against human HeLa cells after 3 days by MTT assay. The experiment is classed as functional, cell-based. Particulars: 72 h.
Experiment [5] is described as follows: Inhibition of chymotrypsin like activity of partially purified rat liver proteasome by spectrofluorimetry. The experiment is classed as subcellular.

For `COc1cc2ccnc3c2c(c1OC)NC=C3` [AAPTAMINE], the IC50 – broadly, the midpoint of a concentration-inhibition curve – in experiment [1] came out at 4.3 µg/mL (≈ 18.8 µM); in experiment [2], 4.6 µg/mL (≈ 20.2 µM); in experiment [3] it was 18 µg/mL (≈ 78.9 µM); in experiment [4], 2.7 µg/mL (≈ 11.8 µM); in the experiment with HeLa it was 15 µg/mL (≈ 65.7 µM); in experiment [5], 1.6 µg/mL (≈ 7.01 µM).

Take `COc1cc2ccnc3c2c(c1O)N(C)C=C3` [ISOAAPTAMINE]: the IC50 stood at 1.7 µg/mL (≈ 7.45 µM) in experiment [1]; 1.7 µg/mL (≈ 7.45 µM) in experiment [2]; 10 µg/mL (≈ 43.8 µM) in experiment [3]; 2.4 µg/mL (≈ 10.5 µM) in experiment [4]; 3.1 µg/mL (≈ 13.6 µM) with HeLa; 2.1 µg/mL (≈ 9.2 µM) in experiment [5].
